Where two headings read alike, the source gives them in different places.
Key:
Format in all cases: cell-based
[1] = system: Klebsiella pneumonia/BAA-1705; test: MIC of MB076 alone or in combination with cefepime or meropenem; settings: Klebsiella pneumoniae, BAA1705
Method: (§1) MICs were determined by the Agar microdilution method, following CLSI guidelines. Compounds were tested at fixed concentration of 4 ug/ml in combination with cefepime.

[2] = system: Klebsiella pneumonia/FDA-CDC AR-BANK#0097; test: as above; settings: Klebsiella pneumoniae
Method: as §1

[3] = system: Klebsiella pneumonia/FDA-CDC AR-BANK#0098; test: as above; settings: Klebsiella pneumoniae
Method: as §1

K. pneum blaKPC-2 = test: MIC of antibiotics in combination with 10 μg/mL of ceftolozane-like BATSIs; settings: FEP + 10 μg/mL compound
K. pneum KPC-Kpn = test: as above; settings: FEP + 10 μg/mL compound
blaCTXM-9 = test: as above; settings: FEP + 10 μg/mL compound
blaADC-7 = test: as above; settings: CAZ + 10 μg/mL compound
blaCMY-2 = test: as above; settings: CAZ + 10 μg/mL compound
18SH = test: as above; settings: CAZ + 10 μg/mL compound
blaPDC-3E221K = test: as above; settings: CAZ + 10 μg/mL compound
A. baumannii 0057 = test: MIC with cefepime, agar microdilution, CLSI; settings: compound fixed at 4 ug/ml; ADC-7
Method: (§2) Minimum inhibitory concentration (MIC) of MB076 and derivatives (PCF_038-043) in combination with cefepime.
as §1

E. coli 29838 = test: MIC with cefepime, agar microdilution, CLSI; settings: compound fixed at 4 ug/ml; CTX-M-14, TEM-1
Method: as §2, §1

E. coli ATCC BAA202 = test: MIC with cefepime, agar microdilution, CLSI; settings: compound fixed at 4 ug/ml; SHV-1
Method: as §2, §1

[4] = system: E. coli DH10B pBC-SK KPC-2; test: MIC with cefepime, agar microdilution, CLSI; settings: compound fixed at 4 ug/ml
Method: as §2, §1

E. coli DH10B pBC-SK P99 = test: MIC with cefepime, agar microdilution, CLSI; settings: compound fixed at 4 ug/ml
Method: as §2, §1

[5] = system: E. coli DH10B pBC-SK PDC-3; test: MIC with cefepime, agar microdilution, CLSI; settings: compound fixed at 4 ug/ml
Method: as §2, §1

[6] = system: E. coli DH10B pBC-SK SHV-2; test: MIC with cefepime, agar microdilution, CLSI; settings: compound fixed at 4 ug/ml
Method: as §2, §1

[7] = system: E. coli DH10B pBC-SK control; test: MIC with cefepime, agar microdilution, CLSI; settings: compound fixed at 4 ug/ml; B-lactamases none
Method: as §2, §1

E. coli pLTCF1 = test: MIC with cefepime, agar microdilution, CLSI; settings: compound fixed at 4 ug/ml; CTX-M group 9
Method: as §2, §1

E. coli pLTCF2 = test: MIC with cefepime, agar microdilution, CLSI; settings: compound fixed at 4 ug/ml
Method: as §2, §1

K. pneumoniae 253 = test: MIC with cefepime, agar microdilution, CLSI; settings: compound fixed at 4 ug/ml; TEM-12, SHV-5, CTX-M
Method: as §2, §1

K. pneumoniae 255 = test: MIC with cefepime, agar microdilution, CLSI; settings: compound fixed at 4 ug/ml; TEM-1, SHV-2
Method: as §2, §1

K. pneumoniae 266 = test: MIC with cefepime, agar microdilution, CLSI; settings: compound fixed at 4 ug/ml; SHV-5
Method: as §2, §1

K. pneumoniae 34700 = test: MIC with cefepime, agar microdilution, CLSI; settings: compound fixed at 4 ug/ml; CTX-M-15, SHV, TEM
Method: as §2, §1

K. pneumoniae 427 = test: MIC with cefepime, agar microdilution, CLSI; settings: compound fixed at 4 ug/ml; TEM-1, SHV-1, CTX-M-3
Method: as §2, §1

K. pneumoniae ST17 = test: MIC with cefepime, agar microdilution, CLSI; settings: compound fixed at 4 ug/ml; KPC-2, TEM, SHV, CTX-M-Group 1
Method: as §2, §1

K. pneumoniae ST258 B5 = test: MIC with cefepime, agar microdilution, CLSI; settings: compound fixed at 4 ug/ml; KPC-2
Method: as §2, §1

K. pneumoniae ST258 C3 = test: MIC with cefepime, agar microdilution, CLSI; settings: compound fixed at 4 ug/ml; KPC-3
Method: as §2, §1

[8] = system: K. pneumoniae original KPC-2; test: MIC with cefepime, agar microdilution, CLSI; settings: compound fixed at 4 ug/ml
Method: as §2, §1

| Compound | MIC of cefepime in combination with compound (A. baumannii 0057) [µg/mL] | MIC of cefepime in combination with compound (E. coli 29838) [µg/mL] | MIC of cefepime in combination with compound (E. coli ATCC BAA202) [µg/mL] | MIC of cefepime in combination with compound [4] [µg/mL] | MIC of cefepime in combination with compound (E. coli DH10B pBC-SK P99) [µg/mL] | MIC of cefepime in combination with compound [5] [µg/mL] | MIC of cefepime in combination with compound [6] [µg/mL] | MIC of cefepime in combination with compound [7] [µg/mL] | MIC of cefepime in combination with compound (E. coli pLTCF1) [µg/mL] | MIC of cefepime in combination with compound (E. coli pLTCF2) [µg/mL] | MIC of cefepime in combination with compound (K. pneumoniae 253) [µg/mL] | MIC of cefepime in combination with compound (K. pneumoniae 255) [µg/mL] | MIC of cefepime in combination with compound (K. pneumoniae 266) [µg/mL] | MIC of cefepime in combination with compound (K. pneumoniae 34700) [µg/mL] | MIC of cefepime in combination with compound (K. pneumoniae 427) [µg/mL] | MIC of cefepime in combination with compound (K. pneumoniae ST17) [µg/mL] | MIC of cefepime in combination with compound (K. pneumoniae ST258 B5) [µg/mL] | MIC of cefepime in combination with compound (K. pneumoniae ST258 C3) [µg/mL] | MIC of cefepime in combination with compound [8] [µg/mL] | further results |
| --- | --- | --- | --- | --- | --- | --- | --- | --- | --- | --- | --- | --- | --- | --- | --- | --- | --- | --- | --- | --- |
| C[C@@H](O)[C@H]1C(=O)N2C(C(=O)O)=C(S[C@@H]3CN[C@H](C(=O)N(C)C)C3)[C@H](C)[C@H]12 [Meropenem, meropenem] | – | – | – | – | – | – | – | – | – | – | – | – | – | – | – | – | – | – | – | MIC ([1]; single agent, read-out: MIC): 32 µg/mL; MIC ([2]; single agent, read-out: MIC): > 32 µg/mL; MIC ([3]; single agent, read-out: MIC): 16 µg/mL |
| CC(C)(O/N=C(\C(=O)NCB(O)O)c1nsc(N)n1)C(=O)O [PCF_013] | – | – | – | – | – | – | – | – | – | – | – | – | – | – | – | – | – | – | – | MIC values of antibiotics in combination with 10 μg/mL of compounds (K. pneum blaKPC-2): 16 mg/L; MIC values of antibiotics in combination with 10 μg/mL of compounds (K. pneum KPC-Kpn): 16 mg/L; MIC values of antibiotics in combination with 10 μg/mL of compounds (blaCTXM-9): 4 mg/L; MIC values of antibiotics in combination with 10 μg/mL of compounds (blaADC-7): 4 mg/L; MIC values of antibiotics in combination with 10 μg/mL of compounds (blaCMY-2): 64 mg/L; MIC values of antibiotics in combination with 10 μg/mL of compounds (18SH): 64 mg/L; MIC values of antibiotics in combination with 10 μg/mL of compounds (blaPDC-3E221K): 8 mg/L |
| CC(C)(O/N=C(\C(=O)N[C@@H](Cn1cc(C(=O)O)nn1)B(O)O)c1nsc(N)n1)C(=O)O [PCF_014] | – | – | – | – | – | – | – | – | – | – | – | – | – | – | – | – | – | – | – | MIC values of antibiotics in combination with 10 μg/mL of compounds (K. pneum blaKPC-2): 32 mg/L; MIC values of antibiotics in combination with 10 μg/mL of compounds (K. pneum KPC-Kpn): 32 mg/L; MIC values of antibiotics in combination with 10 μg/mL of compounds (blaCTXM-9): 2 mg/L; MIC values of antibiotics in combination with 10 μg/mL of compounds (blaADC-7): 8 mg/L; MIC values of antibiotics in combination with 10 μg/mL of compounds (blaCMY-2): 64 mg/L; MIC values of antibiotics in combination with 10 μg/mL of compounds (18SH): 64 mg/L; MIC values of antibiotics in combination with 10 μg/mL of compounds (blaPDC-3E221K): 32 mg/L |
| Cc1nnc(SCC(=O)N[C@@H](Cn2cc(C(=O)O)nn2)B(O)O)[nH]1 [PCF_038] | 64 | < 0.25 | 0.5 | < 0.25 | < 0.25 | < 0.25 | < 0.25 | < 0.25 | < 0.25 | < 0.25 | 2 | 2 | < 0.25 | 1 | < 0.25 | 32 | 16 | 0.5 | < 0.25 | – |
| O=C(CNn1cnnc1S)N[C@@H](Cn1cc(C(=O)O)nn1)B(O)O [PCF_039] | 32 | < 0.25 | < 0.25 | < 0.25 | < 0.25 | < 0.25 | < 0.25 | < 0.25 | < 0.25 | < 0.25 | 1 | 2 | < 0.25 | 1 | < 0.25 | 16 | 4 | < 0.25 | 0.5 | – |
| O=C(CSC1=NCCS1)NC(Cn1cc(C(=O)O)nn1)B(O)O (centres unmarked) [PCF_040] | 32 | 0.5 | 2 | 1 | < 0.25 | < 0.25 | 0.5 | < 0.25 | 0.5 | < 0.25 | 4 | 2 | < 0.25 | 4 | 1 | 32 | 32 | 2 | 2 | – |
| O=C(CNc1nnc(S)s1)N[C@@H](Cn1cc(C(=O)O)nn1)B(O)O [PCF_041] | 64 | < 0.25 | 0.5 | < 0.25 | < 0.25 | < 0.25 | < 0.25 | < 0.25 | 0.5 | < 0.25 | 2 | – | < 0.25 | 2 | 0.5 | 16 | 16 | 1 | 0.5 | – |
| O=C(CSc1ccccn1)N[C@@H](Cn1cc(C(=O)O)nn1)B(O)O [PCF_042] | 64 | < 0.25 | < 0.25 | – | < 0.25 | < 0.25 | < 0.25 | < 0.25 | < 0.25 | < 0.25 | – | 2 | < 0.25 | 1 | < 0.25 | 32 | 16 | 0.5 | < 0.25 | – |
| O=C(CS)N[C@@H](Cn1cc(C(=O)O)nn1)B(O)O [PCF_043] | 32 | 0.5 | 1 | 1 | 1 | < 0.25 | < 0.25 | < 0.25 | 1 | < 0.25 | 4 | 4 | < 0.25 | 4 | 1 | 32 | 16 | 2 | 1 | – |
| CN(C)c1cc(NC(=O)CNC(C)(C)C)c(O)c2c1C[C@H]1C[C@H]3[C@H](N(C)C)C(O)=C(C(N)=O)C(=O)[C@@]3(O)C(O)=C1C2=O [Tigecycline] | – | – | – | – | – | – | – | – | – | – | – | – | – | – | – | – | – | – | – | MIC [1]: 2 µg/mL; MIC [2]: 4 µg/mL; MIC [3]: 1 µg/mL |

Reference: patent US20250340577A1, “BETA-LACTOMASE INHIBITORS AND USES THEREOF” (Case Western Reserve University, priority 2021, published 2025)
